Reference: patent publication US4226610A, “Herbicidal compounds, preparation thereof and herbicides containing the same” (Meiji Selka Kaisha, Ltd., priority 1978, dated 1980)
Where a name gives a salt, the structure may show the parent alone.

Assays:
eulalia = experiment: Experiment 2 foliar application in Japanese cypress afforested land; format: in vivo, Miscanthus sinensis Andress.; design: key: 0 = no effect, 5 = death; details: 0.125%; after 30 days
Description: (§1) The detail of the assessment made in the following Experiments of the invention was as follows:
(§2) The compounds of the invention and other compounds listed in Table 4. were diluted to prescribed concentrations and sprayed to shrubs by foliar application in a Japanese cypress afforested land in an amount of 150 liter per 10 are.
(§3) After 30 days and 3 months, the killing index (0, no effect; 5, death) was determined.
(§4) The heights of plants were 50-70 cm. for Japanese cypress, about 50 cm. for chestnut, 50-90 cm. for miyakozasa, about 100 cm. for eulalia and 70-100 cm. for kumaichigo, respectively.

yabugarashi = experiment: Experiment 1 foliar application to naturally growing weeds; format: in vivo, Cayratia japonica Houtt.; details: 4 months
Description: as §1
(§5) Four months after treatment, evaluation was made for inhibition of reproduction expressed in terms of symbols ranging from (-) to (+++) where (-) means no reproduction, namely complete suppression of reproduction, (±) remarkable suppression of reproduction; (+) considerable suppression of reproduction; (++) medium supprestion of reproduction; and (+++) no suppression of reproduction.
(§6) The compounds of the invention and other compounds for comparison listed in Table 3 were diluted to prescribed concentrations and sprayed to naturally growing weeds by foliar application in an amount of 150 liter per 10 are.
(§7) 0.1% of octylphenyl polyoxyethanol was added as a surfactant.
(§8) The killing index (0, no effect, 5, death) after 21 days, and the reproduction-inhibiting effect (-, no reproduction; +++, maximum reproduction) after 2 months (manna grass and cockspar grass) and 4 months (other weeds) were determined.

warunasubi = experiment: as above; format: in vivo, Solanum carolinensis L.; details: 4 months
Description: as §1, §5, §6, §7, §8

kumaichigo = experiment: Experiment 2 foliar application in Japanese cypress afforested land; format: in vivo, Rubus crataegifolius Bunge; details: 0.125%; after 30 days
Description: as §1, §2, §3, §4

Japanese prickly ash = experiment: Experiment 3 foliar application to naturally growing shrubs; format: in vivo, Xanthoxylum piperitum DC.; details: after 3 months
Description: as §1, §5
(§9) The compounds of the invention and other compounds listed in Table 5. were diluted to prescribed concentrations and sprayed onto naturally growing shrubs by foliar application in an amount of 150 liter per 10 are.
(§10) 0.1% of octylphenyl polyoxyethanol was added as the surfactant. The killing index (0, no effect; 5, death) after 1 month and 3 months, and the reproduction-inhibiting effect (-, no reproduction; +++, maximum reproduction) after 3 months were determined.

Japanese bush cranberry = experiment: as above; format: in vivo, Viburnum dilatatum Thunb.; details: for Reproduction-inhibiting: after 3 months
Description: as §1, §5, §9, §10

yamazakura = experiment: as above; format: in vivo, Prunus donarium Sieb. var. spontanae Makino; details: after 3 months
Description: as §1, §5, §9, §10

torch azalea = experiment: as above; format: in vivo, Rhododendoron Kaempferi Planch.; details: after 3 months
Description: as §1, §5, §9, §10

lace shrub = experiment: as above; format: in vivo, Stephanandra incisa Zabel; details: for Reproduction-inhibiting: after 3 months
Description: as §1, §5, §9, §10

hedge bindweed = experiment: Experiment 1 foliar application to naturally growing weeds; format: in vivo, Calystegis hederacea Wall.; details: 4 months
Description: as §1, §5, §6, §7, §8

oak = experiment: Experiment 3 foliar application to naturally growing shrubs; format: in vivo, Quercus serrata Thunb; details: after 3 months
Description: as §1, §5, §9, §10

azumanezasa = experiment: Experiment 1 foliar application to naturally growing weeds; format: in vivo, Pleioblastus Chino Makino; details: 4 months
Description: as §1, §5, §6, §7, §8

purple nutsedge = experiment: as above; format: in vivo, Cyperus rotundus L.; details: 4 months
Description: as §1, §5, §6, §7, §8

cockspar grass = experiment: as above; format: in vivo, Echinochloa Crusgalli P. Beauv.; details: 2 months
Description: as §1, §5, §6, §7, §8

chigaya = experiment: as above; format: in vivo, Imperata cylindrica Beauv.; details: 4 months
Description: as §1, §5, §6, §7, §8

white clover = experiment: as above; format: in vivo, Trifolium repens L.; details: 4 months
Description: as §1, §5, §6, §7, §8

kiichigo = experiment: Experiment 3 foliar application to naturally growing shrubs; format: in vivo, Rubus palmatsu Thunb. forma coptophyllus Makino; details: for Reproduction-inhibiting: after 3 months
Description: as §1, §5, §9, §10

manna grass = experiment: Experiment 1 foliar application to naturally growing weeds; format: in vivo, Digitaria adsceudes Henr.; details: 2 months
Description: as §1, §5, §6, §7, §8

CP(=O)(O)CC[C@H](N)C(=O)O [L-2-Amino-4-methylphosphinobutanoic acid monodiethanolammoni] [L-2-Amino-4-methylphosphinobutanoic acid monodiethanolammonium salt]
Killing index (eulalia): 3.5 | Reproduction-inhibiting effect (yabugarashi; 0.05%): ++ | Reproduction-inhibiting effect (yabugarashi; 0.1%): + | Reproduction-inhibiting effect (yabugarashi; 0.2%): ± | Reproduction-inhibiting effect (warunasubi; 0.05%): +++ | Reproduction-inhibiting effect (warunasubi; 0.1%): + | Reproduction-inhibiting effect (warunasubi; 0.2%): ± | Killing index (kumaichigo): 4.5 | Reproduction-inhibiting (Japanese prickly ash; 0.05%): +++ | Killing index (Japanese prickly ash; 0.1%): 4.5 | Reproduction-inhibiting (Japanese prickly ash; 0.1%): ± | Reproduction-inhibiting (Japanese prickly ash; 0.2%): - | Reproduction-inhibiting (Japanese bush cranberry; 0.05%): +++ | Reproduction-inhibiting (Japanese bush cranberry; 0.1%): ++ | Killing index (Japanese bush cranberry; 0.1%, after 30 days): 4.5 | Reproduction-inhibiting (Japanese bush cranberry; 0.2%): - | Reproduction-inhibiting (yamazakura; 0.05%): ++ | Reproduction-inhibiting (yamazakura; 0.1%): - | Reproduction-inhibiting (yamazakura; 0.2%): - | Reproduction-inhibiting (torch azalea; 0.05%): +++ | Reproduction-inhibiting (torch azalea; 0.1%): - | Reproduction-inhibiting (torch azalea; 0.2%): - | Reproduction-inhibiting (lace shrub; 0.05%): ++ | Killing index (lace shrub; 0.05%, after 30 days): 3.5 | Reproduction-inhibiting (lace shrub; 0.1%): - | Reproduction-inhibiting (lace shrub; 0.2%): - | Reproduction-inhibiting effect (hedge bindweed; 0.05%): +++ | Reproduction-inhibiting effect (hedge bindweed; 0.1%): ++ | Reproduction-inhibiting effect (hedge bindweed; 0.2%): + | Reproduction-inhibiting (oak; 0.05%): ++ | Reproduction-inhibiting (oak; 0.1%): - | Reproduction-inhibiting (oak; 0.2%): - | Reproduction-inhibiting effect (azumanezasa; 0.05%): ++ | Reproduction-inhibiting effect (azumanezasa; 0.1%): - | Reproduction-inhibiting effect (azumanezasa; 0.2%): - | Reproduction-inhibiting effect (purple nutsedge; 0.05%): +++ | Reproduction-inhibiting effect (purple nutsedge; 0.1%): + | Reproduction-inhibiting effect (purple nutsedge; 0.2%): ± | Reproduction-inhibiting effect (cockspar grass; 0.05%): ++ | Reproduction-inhibiting effect (cockspar grass; 0.1%): - | Reproduction-inhibiting effect (cockspar grass; 0.2%): - | Reproduction-inhibiting effect (chigaya; 0.05%): ++ | Reproduction-inhibiting effect (chigaya; 0.1%): - | Reproduction-inhibiting effect (chigaya; 0.2%): - | Reproduction-inhibiting effect (white clover; 0.05%): +++ | Reproduction-inhibiting effect (white clover; 0.1%): - | Reproduction-inhibiting effect (white clover; 0.2%): - | Reproduction-inhibiting (kiichigo; 0.05%): ++ | Killing index (kiichigo; 0.05%, after 30 days): 3.5 | Reproduction-inhibiting (kiichigo; 0.1%): - | Reproduction-inhibiting (kiichigo; 0.2%): - | Reproduction-inhibiting effect (manna grass; 0.05%): ++ | Reproduction-inhibiting effect (manna grass; 0.1%): - | Reproduction-inhibiting effect (manna grass; 0.2%): -
